This is an account of results in patent US4654348A, “Pyrazolo[4,3-d]pyrimidine derivative, process for its production, antihyperlipidemic agent containing it, its intermediate, and process for the production of the intermediate” (Nissan Chemical Industries Ltd., priority 1984, dated 1987).

Data set [1] relates to serum lipid. As to conditions: Science, 193, 903 (1976); J. Lipid Res., 12, 596 (1971); cited from earlier work.
For data set [2], the system named is emulsion-induced hyperlipidemic rats. As to the kind of experiment: Test 1: antihyperlipidemic activity in emulsion-induced hyperlipidemic rats (serum Chol, HDL-Chol, liver weight). It counts as in vivo, male S.D. rats. As to conditions: 3 days, vs control; for change in vivo at 300 mg/kg / inhibition in vivo at 300 mg/kg: Rattus norvegicus, po, 72 h; for change in vivo at 300 mg/kg: read-out: Increase rate of serum HDL-Chol; for inhibition in vivo at 300 mg/kg: read-out: Reduction rate of serum Chol.; for Degree of hepatomegaly (change rate of the liver weight): liver weight per 100 g body weight, 300 mg/kg/day. The protocol:
The antihyperlipidemic activity in emulsion-induced hyperlipidemic rats:
Male S.D. rats weighing 80-90 g (4 weeks old) were used. They were divided into groups of 5 to 6 rats each. The test compounds suspended in 0.5% CMC-Na(carboxymethyl cellulose sodium salt) were given to the rats in a daily dose of 4 ml/kg (i.e. 300 mg/kg of the test compounds) via stomach tube every 10:00 a.m. After 30 min., lipids emulsion having the following composition was orally given to the rats in an amount of 2.5 ml per rat.
Cholic acid sodium salt 10.0 g
During the experimental period of 3 days, the rats were fed on a standard commercial diet and water ad libitum. […] The total cholesterol and HDL cholesterol were measured.
The weight of the liver was measured. To the control group, only the aqueous CMC-Na solution and the lipids emulsion were given.
The fractionation of lipoproteins was conducted by a dextran sulfate-MgCl2 precipitation method.
Cholesterol in serum was measured by means of a cholesterol measuring kit (Cholesterol C-Test Wako, manufactured by Wako Junyaku Co., Ltd.), and cholesterol in HDL was measured by means of NC Hi-Set, manufactured by Nippon Chemiphar Co., Ltd.
Further, the reduction rate of Chol was calculated by the following equation. [formula] where A is the amount of serum Chol (mg/dl) of the control group, and B is the amount of serum Chol (mg/dl) of the group to which the therapeutic agent was administered.
Likewise, the increase rate of HDL-Chol was calculated by the following equation. [formula] where C is the amount of serum HDL-Chol (mg/dl) of the control group, and D is the amount of serum HDL-Chol (mg/dl) of the group to which the therapeutic agent was administered.
The degree of hepatomegaly (i.e. the change rate of the liver weight) was calculated by the following equation. [formula] where E is the liver weight (g) per 100 g of the body weight of the control group, and F is the liver weight (g) per 100 g of the body weight of the group to which the therapeutic agent was administered.

For data set [3] the following is noted: in words; cited from earlier work.
For data set [4], the system named is animals. As to conditions: animal experiments; Svoboda and Azarnoff, Cancer Res., 39, 3419 (1979); cited from earlier work.
The nature of data set [5]: Test 2: Acute toxicity (mortality after seven days). The format is in vivo. As to conditions: mouse, in vivo, po, 8000 mg/kg p.o., male ddY mice. The protocol: (§1) The test compounds suspended in 0.5% CMC-Na were administered p.o. to male ddY mice. The acute toxicity was determined based on the mortality after seven days. In respect of the compounds of Examples 1, 9, 10 and 11 of the present invention, the mortality was 0% even at a dose of as high as 8000 mg/kg by oral administration.

Data set [6] deals with male ddY mice. The description is as above. It counts as in vivo. The following applies: 8000 mg/kg p.o., 10080 min. The protocol:
as §1

In the case of `Nc1ncnc2[nH]ncc12` [1H-pyrazolo[3,4-d]pyrimidine-4-amine], in data set [1], the serum lipid reduction entry is “function to reduce serum lipid”.

As for `CCOC(=O)C(C)(C)Oc1ccc(Cl)cc1` [Clofibrate, reference compound], in data set [2] (300 mg/kg/day via stomach tube), the change in vivo at 300 mg/kg was 12% and the inhibition in vivo at 300 mg/kg is 44%. The “Degree of hepatomegaly (change rate of the liver weight)” value in data set [2] is given as “+22%”. The “subsidiary ill effects reported” value in data set [3] is “myalgia or hepatic insufficiency, and they are likely to lead to gallstone formation”. Further, the hepatic carcinoma result in data set [4] was “brings about hepatic carcinoma on animal experiments”.

As to `CCCCCCCC/C=C\CCCCCCCCOc1c2ncnc(SCC(=O)OCC)c2nn1C` [Example 9, 2-Methyl-3-oleyloxy-7-ethoxycarbonylmethylthio-pyrazolo[4,3-d]pyrimidine], in data set [2] (300 mg/kg/day via stomach tube), the change in vivo at 300 mg/kg amounted to 55% and the inhibition in vivo at 300 mg/kg amounted to 66%. The “Degree of hepatomegaly (change rate of the liver weight)” value in data set [2] is listed as “+5%”. In addition, the mortality at 168 h in data set [5] was determined as 0%.

Regarding `CCCCC/C=C\C/C=C\CCCCCCCCOc1c2ncnc(SCC(=O)OCC)c2nn1C` [Example 10, 2-Methyl-3-linoleyloxy-7-ethoxycarbonylmethylthio-pyrazolo[4,3-d]pyrimidine], in data set [2] (300 mg/kg/day via stomach tube), the change in vivo at 300 mg/kg stood at 13% and the inhibition in vivo at 300 mg/kg is 76%. Further, the “Degree of hepatomegaly (change rate of the liver weight)” value in data set [2] was “+12%”. In data set [5], this molecule yielded a mortality at 168 h of 0%.

As to `CC/C=C\C/C=C\C/C=C\CCCCCCCCOc1c2ncnc(SCC(=O)OCC)c2nn1C` [Example 11, 2-Methyl-3-linolenyloxy-7-ethoxycarbonylmethylthio-pyrazolo[4,3-d]pyrimidine], in data set [2] (300 mg/kg/day via stomach tube), the “Increase rate of serum HDL-Chol” value is given as 26% and the “Reduction rate of serum Chol.” value is reported as 83%. In addition, in data set [2], the “Degree of hepatomegaly (change rate of the liver weight)” value was “+20%”. In data set [6], this molecule showed a mortality of 0%.

Regarding `O=C(O)c1cccnc1` [nicotinic acid], the “subsidiary ill effects reported” value in data set [3] is listed as “flashing or gastroenteric troubles”.

For orientation: mortality means the percentage killed. Low values mean more survivors, high ones fewer survivors.
